Source: ChEMBL document CHEMBL3988442, “University of Dundee, Small-Polar-MMV Screening Library” (2021)
pIC50: −log10 of the molar value.

Target: Tryptophan--tRNA ligase (Mycobacterium tuberculosis (strain ATCC 25618 / H37Rv), UniProt P9WFT3)
Test: Biochemical assay for Mt-TrpRS
Assay type: functional

Chain of Tryptophan--tRNA ligase (P9WFT3 whole entry): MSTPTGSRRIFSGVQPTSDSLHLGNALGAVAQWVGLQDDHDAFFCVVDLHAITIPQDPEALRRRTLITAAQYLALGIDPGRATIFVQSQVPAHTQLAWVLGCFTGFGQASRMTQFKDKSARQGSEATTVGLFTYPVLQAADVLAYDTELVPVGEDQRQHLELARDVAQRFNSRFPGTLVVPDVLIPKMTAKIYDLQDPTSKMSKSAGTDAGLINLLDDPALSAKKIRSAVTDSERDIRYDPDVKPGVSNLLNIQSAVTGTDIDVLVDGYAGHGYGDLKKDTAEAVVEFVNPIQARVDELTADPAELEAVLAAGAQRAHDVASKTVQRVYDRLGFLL

| Compound | pIC50 |
| --- | --- |
| CC(=O)NC[C@]1(O)CCN(C(=O)c2ccc(F)c(Cl)c2)C[C@H]1O | < 3.71 |
| CC(=O)N1CCN(CC(N)=O)CC(COc2ccccc2)C1 (stereo not given) | < 3.71 |
| O=C(CCn1ccnc1)N1C[C@@H](O)[C@H](Oc2cccc(F)c2)C1 | < 3.71 |
| Cc1ccc(S(=O)(=O)Nc2ccc(=O)n(C)c2)c(Br)c1 | < 3.71 |
| O=C(O)C1(Cc2cc(-c3ccccc3F)no2)CCOCC1 | < 3.71 |
| CNC(=O)CCc1cc(C)nc(C2CCCCN2)n1 (stereo not given) | < 3.71 |
| COc1ccc(CN2CC[C@H](NC(C)=O)[C@@H](O)CC2)c(F)c1 | < 3.71 |
| O=C(C1CCCC1)N1CCCC(c2nc(O)cc(-c3ccncc3)n2)C1 (stereo not given) | < 3.71 |
| O=C(c1ccco1)N1CCC2(CCCN(c3ncccn3)C2)C1 (stereo not given) | < 3.71 |
| Cc1cc(C)c(CNC(=O)NCc2nnc3n2CCC3)c(=O)[nH]1 | < 3.71 |
| Cc1cncc(C2CCN(C(=O)CCc3ccnn3C)CC2)n1 | < 3.71 |
| Cn1nccc1C(=O)N1CCCC1c1[nH]ncc1C(N)=O (stereo not given) | < 3.71 |
| CC(C)N1CCCC2(CCN(Cc3noc(C4CCCC4)n3)C2)C1=O (stereo not given) | < 3.71 |
| Cn1cnnc1C1CCN(C(=O)CCOc2ccc(Cl)cc2)CC1 | < 3.71 |
| CC1CN(Cc2ccccc2)CCCN1CCNS(C)(=O)=O (stereo not given) | < 3.71 |
| CCN(c1ccc(C(=O)N2CCCC2c2cnn(C)c2)cn1)C(C)C (stereo not given) | < 3.71 |
| NC(=O)C1(CCCc2ccncc2)CCCN1 (stereo not given) | < 3.71 |
| Cc1ccccc1-c1cncc(C2CCN(CCO)CC2)n1 | < 3.71 |
| N#CCCN1CC(O)CN(C(=O)c2cccc(C(F)(F)F)c2)CC1=O (stereo not given) | < 3.71 |
| Cc1cnn(CCCNC2Cc3ccccc3C2)c1 | < 3.71 |
| Cc1noc([C@@H]2C[C@H]3CN(CC4CCOCC4)C[C@H]3O2)n1 | < 3.71 |
| O=C(C1CCCCC1)N1CCC(c2n[nH]c3nccnc23)CC1 | < 3.71 |
| O=C(c1ccc(=O)[nH]n1)N1CCNCC1c1ccccc1 (stereo not given) | < 3.71 |

| Compound | pIC50 |
| --- | --- |
| O=c1[nH]c(-c2ccncc2)ncc1-c1ccnc(NC2CC2)n1 | < 3.71 |
| CS(=O)(=O)c1nccn1CCOc1ccccc1F | < 3.71 |
| Fc1ccc(-c2nc(CN3CCCC3Cn3cncn3)co2)cc1 (stereo not given) | < 3.71 |
| CCc1ccc(C(=O)N2CCN(CC(O)CC)CC2)o1 (stereo not given) | < 3.71 |
| CC(=O)NC1CCCN(C(=O)CCc2cccnc2)C1 (stereo not given) | < 3.71 |
| COc1ccccc1OCCc1nnc(NC(=O)C2CC23CCC3)s1 (stereo not given) | < 3.71 |
| CCOCc1cnc2n1CCN(C(=O)c1ccoc1C)C2C (stereo not given) | < 3.71 |
| Cc1ccn(-c2ccc(N3CCCN(Cc4ccccc4)CC3)nn2)n1 | < 3.71 |
| CNC(=O)c1cc2ccccc2n1C | < 3.71 |
| COc1ccccc1C1(C(=O)NCCN2CCCCC2)CCOCC1 | < 3.71 |
| CN(C)CCN1C[C@@H]2CN(c3ccccc3)C[C@@H]2C1=O | < 3.71 |
| CN(C)Cc1cncc2c1CCN(Cc1ccoc1)C2 | < 3.71 |
| CC(C)C(=O)N1CCC(C)(c2cc(O)[nH]n2)CC1 | < 3.71 |
| CC(C)c1ccc(-n2ncc(C(=O)NCC3COC(C)(C)O3)c2N)cc1 (stereo not given) | < 3.71 |
| Cc1ccc(CN2CCO[C@H]3[C@H](OCc4cccnc4)CC[C@@H]32)o1 | < 3.71 |
| CNC(=O)c1cnn2c(C3CCCN3C)ccnc12 (stereo not given) | < 3.71 |
| CCC(=O)N1CCC2(C=C(C(=O)N3CCCC3)c3ccccc32)CC1 | < 3.71 |
| O=C(NCCc1ccncc1)c1cccnc1OCC(F)(F)F | < 3.71 |
| CCn1cc(S(=O)(=O)NC(=O)CCc2c[nH]c3ccccc23)cn1 | < 3.71 |
| COc1cccc(CN2CC(O)CN(C(=O)C(C)(C)C)CC2=O)c1OC (stereo not given) | < 3.71 |
| CN(Cc1nnc2n1CCC2)C(=O)c1ccc2c(c1)OCCO2 | < 3.71 |
| Cn1nc(C2CN(C(=O)c3ccncc3)C2)c2nccnc21 | < 3.71 |
| Cc1nnc2n1CCN(Cc1csc(-c3ncccn3)n1)C2 | < 3.71 |

| Compound | pIC50 |
| --- | --- |
| NC(=O)CN1CCCC(Cc2ccc(N)nn2)C1 (stereo not given) | < 3.71 |
| CCn1cc(CN2CCC(c3[nH]ncc3S(C)(=O)=O)C2)cn1 (stereo not given) | < 3.71 |
| O=C(COC[C@]12COC[C@H]1CN(C1CCC1)C2)N1CCCC1 | < 3.71 |
| O=S(=O)(c1ccccc1)N1C(CN2CCOCC2)[C@]2(O)CC[C@H]1CC2 (stereo not given in full) | < 3.71 |
| Cc1ccc(C(=O)NS(=O)(=O)c2ccccc2F)c(=O)[nH]1 | < 3.71 |
| Cc1cccc(CN2CCC(c3nnsc3S(C)(=O)=O)CC2)c1 | < 3.71 |
| O=C(Cc1cccc(O)c1)N1CCCC(O)(CN2CCCC2)CC1 (stereo not given) | < 3.71 |
| CNC(=O)c1nc(CN2CCOC(C(F)(F)F)C2)no1 (stereo not given) | < 3.71 |
| Cc1cccc(Cn2cc(C)c(N)n2)c1 | < 3.71 |
| CCN1Cc2cc(F)ccc2N(CC(O)C(F)(F)F)CCC1=O (stereo not given) | < 3.71 |
| O=C(c1ccco1)N1C(CO)[C@]2(O)CC[C@H]1CC2 (stereo not given in full) | < 3.71 |
| CN(C)CC(=O)N1C[C@@H]2CC[C@H](Oc3ccccc3)[C@@H]2C1 | < 3.71 |
| CN(CCc1ccccn1)C(=O)Nc1cc(C(F)(F)F)c[nH]c1=O | < 3.71 |
| COc1ccc(C2Nc3cc(Cl)ccc3C3=NCCN32)cc1O (stereo not given) | < 3.71 |
| O=C(N[C@@H]1CC[C@@H](n2ccnc2)[C@@H]1O)c1cc2c(s1)CCC2 | < 3.71 |
| CSc1ncc(Cl)c(C(=O)NC(Cc2ccccc2)C(=O)O)n1 (stereo not given) | < 3.71 |
| Cn1cc(-c2cc(C(F)(F)F)n(CCCN)n2)cn1 | < 3.71 |
| COCCN1CCC(c2cncc(N(C)C)n2)CC1 | < 3.71 |
| Cc1cn(Cc2ccc(F)c(F)c2)nc1N | < 3.71 |
| CN1CC(c2cc(O)nc(NCc3ccc(Cl)cc3)n2)CC1=O (stereo not given) | < 3.71 |
| c1cn(-c2cnc(C3CCNCC3)cn2)cn1 | < 3.71 |
| Cc1nc(C2CCCN2C(=O)COc2ccccc2)ncc1C(N)=O (stereo not given) | < 3.71 |
| COCCc1noc(CN(C)C2CCCN(c3cccnn3)C2)n1 (stereo not given) | < 3.71 |

| Compound | pIC50 |
| --- | --- |
| CNC(=O)Nc1cnc2cc(Cl)ccc2c1O | < 3.71 |
| c1cn(-c2cnc(C3CCCNC3)cn2)cn1 (stereo not given) | < 3.71 |
| CC(C)n1c2ccccc2c2c1cc(C(=O)N(C)C)n2S(C)(=O)=O | < 3.71 |
| CCn1cc(C(=O)N2CCCC(c3nccs3)C2)cn1 (stereo not given) | < 3.71 |
| Cc1ccc2c(c1C)OCC2NCc1ccc(C#N)cc1 (stereo not given) | < 3.71 |
| c1ccc(CO[C@@H]2CN(Cc3ccoc3)[C@@H]3COC[C@@H]32)nc1 | < 3.71 |
| CNC(=O)c1cc(C2CCCNC2)n[nH]1 (stereo not given) | < 3.71 |
| Cc1ncsc1C(=O)NC1CCN(CCC#N)CC1 | < 3.71 |
| CC1(C(=O)N2CCOCC2)CN(Cc2ncc[nH]2)CCO1 (stereo not given) | < 3.71 |
| Cn1ccc(C(=O)N2CCOC(c3ccccn3)C2)cc1=O (stereo not given) | < 3.71 |
| CS(=O)(=O)N1CCC2(CC1)CC(NCc1ccco1)c1ccccc12 (stereo not given) | < 3.71 |
| Cc1cc(CNC(=O)N(Cc2ccc(F)cc2F)C2CC2)no1 | < 3.71 |
| Cn1cccc1CNC(=O)CCCc1nnc2ccccn12 | < 3.71 |
| CS(=O)(=O)N1C[C@@H]2CCN(C(=O)c3cscn3)[C@@H]2C1 | < 3.71 |
| COc1ccc2c(c1)CC(NCCCn1cc(C)cn1)CC2 (stereo not given) | < 3.71 |
| O=C(Cc1cccc(O)c1)N1CCCC(O)(CN2CCOCC2)CC1 (stereo not given) | < 3.71 |
| Nc1cc2c(nn1)CCN(C(=O)C1CCc3ccccc31)C2 (stereo not given) | < 3.71 |
| Cc1cnc(N)c(C(=O)C2CCN(C(=O)c3cnc(C)cn3)CC2)c1 | < 3.71 |
| O=S(=O)(c1cccs1)N1CCCC(c2nccs2)C1 (stereo not given) | < 3.71 |
| CC(C)CN1C[C@H](COCc2ccccc2)Oc2ncccc2C1=O | < 3.71 |
| O=C(N[C@@H]1CCC[C@@H](N2CCCC2)[C@@H]1O)c1cc2ccccc2[nH]1 | < 3.71 |
